Values quoted from earlier work as cited in US20230314440A1, “METHOD OF TREATING CANCER” (priority 2020, published 2023).

Test system: metastatic renal cell carcinoma (RCC)
Settings: patients with metastatic RCC; ESMO 2018, Presentation No. 882P

For COc1cc2nccc(Oc3ccc(NC(=O)C4(C(=O)Nc5ccc(F)cc5)CC4)cc3)c2cc1OC [cabozantinib, N-(4-{[6,7-bis(methyloxy)quinolin-4-yl]oxy}phenyl)-N′-(4-fluorophenyl)cyclopropane-1,1-dicarboxamide], the “effect on systemic tumor immunity” value is given as “has an impact on systemic tumor immunity”.
